Test results from patent publication US20260226414A1, “COMPOSITION FOR INDUCING DIFFERENTIATION OF MESENCHYMAL STEM CELLS INTO ADIPOCYTES” (ENCELL CO., LTD, priority 2023, published 2026).

Columns and labels:
Type in all cases: cell-based
[1] = test system: human adipose-derived mesenchymal stem cells; test: Cell viability / cytotoxicity by Cell Counting Kit-8 (CCK-8); settings: 0-280 μM nervonic acid, vs DMSO control
Description: The isolated human adipose-derived mesenchymal stem cells were treated with nervonic acid at different concentrations and cultured for 72 hours, after which cytotoxicity was measured. Specifically, Cell Counting Kit-8 (CCK-8, Dojindo, Tokyo, Japan) was used, and 1×10^3/well of cells were plated on a 96-well plate, stabilized for 24 hours, and then treated with nervonic acid at different concentrations (0, 40, 80, 120, 160, 200, 240, 280 μM), including the control group (DMSO), and cell viability was measured.
Before confirming the efficacy of nervonic acid to promote adipogenesis, cell viability was reconfirmed by treating cells with nervonic acid at various concentrations for 7 days. The specific method is the same as the method described above, and cell viability was measured by treatment with nervonic acid at different concentrations (0, 40, 80, 120, 160, 200, 240, 280 μM), including the control group (DMSO).

[2] = test system: human adipose-derived mesenchymal stem cells; test: Observation of oil droplet formation after 72 hours of culture with nervonic acid; settings: 72 hours treatment, different concentrations
Description: Human adipose-derived mesenchymal stem cells were treated with nervonic acid at different concentrations for 72 hours and cultured, after which the concentration at which oil droplets were generated was observed.

[3] = test system: human adipose-derived mesenchymal stem cells (AD-MSCs); test: Adipogenesis induction, Oil Red O staining and quantification (absorbance at 540 nm); settings: for Oil Red O stained oil droplets, fold increase compared to DMSO-treated control group: 160 μM, three lots of AD-MSCs
Description: To determine the appropriate concentration of nervonic acid having excellent efficacy in promoting adipogenesis, adipogenesis was induced for 7 days by treating human adipose-derived mesenchymal stem cells with nervonic acid at different concentrations (0, 40, 80, 120, 160, 200, 240, 280 μM), followed by Oil Red O staining to confirm the stained oil droplets.
(§1) Specifically, for Oil Red O (Sigma-Aldrich, St. Louis, MO, USA) staining, after completion of differentiation, the culture medium was removed from each well of the plate, followed by washing twice with 1×PBS and then fixing with 4% paraformaldehyde (PFA) for 10 minutes. Washing three times with deionized water and then washing once with 60% isopropyl alcohol were performed. The Oil Red O stock solution was diluted with deionized water in a ratio of 3:2 to prepare an Oil Red O working solution, 1 ml of which was then added to each well of the plate followed by reaction at room temperature for 30 minutes. After washing once with 60% isopropyl alcohol and washing three times with deionized water, the red-stained oil droplets were observed and photographed under a microscope, and the results are shown in FIG. 4a.
After inducing adipogenesis for 7 days by treating human adipose-derived mesenchymal stem cells with nervonic acid at different concentrations (0, 40, 80, 120, 160, 200, 240, 280 μM), the results of quantification of the oil droplets stained by Oil Red O staining are shown in FIG. 4b.
Specifically, the stained oil droplets were dissolved in 100% isopropyl alcohol, and 100 μl of the result was transferred to each well of the 96-well plate, followed by measurement using a microplate reader (absorbance at 540 nm). […] Nervonic acid (Sigma-Aldrich, St. Louis, MO, USA) was dissolved in DMSO and then stored at −80° C. before use.
Adipogenesis was induced for 7 days by treating a total of three lots of human adipose-derived mesenchymal stem cells (AD-MSCs) with 160 μM nervonic acid, followed by observation of the oil droplets stained by Oil Red O staining, and the results are shown in FIG. 5a.

[4] = test system: human umbilical cord blood-derived mesenchymal stem cells (UCB-MSCs); test: Adipogenesis induction, Oil Red O staining quantification
Description: as §1
(§2) Specifically, the stained oil droplets were dissolved in 100% isopropyl alcohol, and 100 μl of the result was transferred to each well of the 96-well plate, followed by measurement using a microplate reader (absorbance at 540 nm). […]
After inducing adipogenesis for 7, 14, and 21 days by treating human umbilical cord blood-derived mesenchymal stem cells (UCB-MSCs) with nervonic acid, the oil droplets stained by Oil Red O staining are shown in FIG. 8a, and the results of quantification of the stained oil droplets are shown in FIG. 8b.

[5] = test system: human placenta-derived mesenchymal stem cells (PL-MSCs); test: as above
Description: as §1, §2
After inducing adipogenesis for 7, 14, and 21 days by treating human placenta-derived mesenchymal stem cells (PL-MSCs) with nervonic acid, the oil droplets stained by Oil Red O staining are shown in FIG. 9a, and the results of quantification of the stained oil droplets are shown in FIG. 9b.

[6] = test system: human umbilical cord-derived mesenchymal stem cells (WJ-MSCs); test: as above
Description: as §1, §2
After inducing adipogenesis for 7, 14, and 21 days by treating human umbilical cord-derived mesenchymal stem cells (WJ-MSCs) with nervonic acid, the oil droplets stained by Oil Red O staining are shown in FIG. 10a, and the results of quantification of the stained oil droplets are shown in FIG. 10b.

[7] = test system: human bone marrow-derived mesenchymal stem cells (BM-MSCs); test: as above; settings: 160 μM, days 7 and 14
Description: as §1, §2
After inducing adipogenesis for 7, 14, and 21 days by treating human bone marrow-derived mesenchymal stem cells (BM-MSC) with nervonic acid, the oil droplets stained by Oil Red O staining are shown in FIG. 11a, and the results of quantification of the stained oil droplets are shown in FIG. 11b.

[8] = test system: human adipose-derived mesenchymal stem cells (AD-MSCs); test: qRT-PCR of adipogenesis markers at the mRNA level (2^-ΔΔCt); settings: 160 μM, day 14, qRT-PCR
Description: After inducing adipogenesis for 14 days by treating human adipose-derived mesenchymal stem cells (AD-MSCs) with 160 μM nervonic acid, the gene expression of adipogenesis markers at the mRNA level was compared using qRT-PCR.
Specifically, RNA for qRT-PCR was extracted from mesenchymal stem cells with adipogenesis completed using TRIZOL from Invitrogen according to the method provided by the vendor, and cDNA was synthesized using SuperScript™ IV Reverse Transcriptase from Invitrogen. qRT-PCR was performed using the primers listed in Table 1 below, and the quantified results through 2^−ΔΔCt analysis are shown in FIG. 12.

[9] = test system: human adipose-derived mesenchymal stem cells (AD-MSCs); test: Western blotting of adipogenesis markers at the protein level; settings: 160 μM, day 14, Western blotting
Description: After inducing adipogenesis for 14 days by treating human adipose-derived mesenchymal stem cells (AD-MSCs) with 160 μM nervonic acid, the expression of adipogenesis markers at the protein level was compared using Western blotting.
Specifically, protein for Western blotting was extracted from mesenchymal stem cells with adipogenesis completed using RIPA lysis buffer, and Western blotting was performed using the primary antibodies listed in Table 2 below.

[10] = test system: human adipose-derived mesenchymal stem cells (AD-MSCs); test: Western blotting of adipogenesis-associated signaling molecules (phosphorylation ratios); settings: 160 μM, day 14, Western blotting
Description: After inducing adipogenesis for 14 days by treating human adipose-derived mesenchymal stem cells (AD-MSCs) with 160 μM nervonic acid, the expression of adipogenesis-associated signaling molecules at the protein level was compared using Western blotting.
More specifically, protein for Western blotting was extracted using the same method as the extraction method described above, and Western blotting was performed using the primary antibodies listed in Table 3 below.

[11] = 160 μM, 7, 14 and 21 days (all cases)

CCCCCCCC/C=C\CCCCCCCCCCCCCC(=O)O [nervonic acid]
cell viability (cytotoxicity) ([1]; 72 hours (3 days)): no significant difference in cell viability
cell viability (cytotoxicity) ([1]; 7 days): no significant difference in cell viability
concentration at which oil droplets were observed [2]: ≥ 160 µM
Oil Red O stained oil droplets, fold increase compared to DMSO-treated control group ([3]; 7 days): 2.13±0.27 fold
Oil Red O stained oil droplets, fold increase compared to DMSO-treated control group ([3]; 14 days): 1.70±0.08 fold
Oil Red O stained oil droplets, fold increase compared to DMSO-treated control group ([3]; 21 days): 1.27±0.14 fold
concentration at which adipogenesis was most effectively induced (Oil Red O quantification) ([3]; 7 days adipogenesis, 0-280 μM tested): 160 µM
Oil Red O stained oil droplets, fold increase compared to DMSO control group [4, 11]: ≥ 2 fold
Oil Red O stained oil droplets, fold increase compared to DMSO control group ([4]; 160 μM, day 21 (greatest)): 3.87±0.06 fold
Oil Red O stained oil droplets, fold increase compared to DMSO control group [5, 11]: ≥ 2 fold
Oil Red O stained oil droplets, fold increase compared to DMSO control group ([5]; 160 μM, day 21 (greatest)): 9.22±0.15 fold
Oil Red O stained oil droplets, fold increase compared to DMSO control group [6, 11]: ≥ 2 fold
Oil Red O stained oil droplets, fold increase compared to DMSO control group ([6]; 160 μM, day 21 (greatest)): 5.61±0.23 fold
adipogenesis (Oil Red O) compared to DMSO control group [7]: slightly increased
Adiponectin mRNA expression, fold increase compared to control group [8]: 1.37±0.19 fold
LPL mRNA expression, fold increase compared to control group [8]: 1.44±0.12 fold
PPARγ mRNA expression, fold increase compared to control group [8]: 1.74±0.35 fold
c/EBPa mRNA expression, fold increase compared to control group [8]: 1.66±0.22 fold
Adiponectin protein expression, fold increase compared to control group [9]: 2.35±0.55 fold
C/EBPA protein expression, fold increase compared to control group [9]: 1.37±0.08 fold
LPL protein expression, fold increase compared to control group [9]: 1.53±0.15 fold
PPARγ protein expression, fold increase compared to control group [9]: 2.34±0.69 fold
AKT phosphorylation ratio (activation indicator), fold increase compared to control group [10]: 1.36±0.16 fold
B-catenin phosphorylation ratio (inactivation indicator), fold increase compared to control group [10]: 1.39±0.06 fold
mTOR phosphorylation ratio (activation indicator), fold increase compared to control group [10]: 1.34±0.14 fold
